Source: patent US12708604B2, “Lyophilized preparation of prostaglandin E1 methyl ester for injection and production and use thereof” (Xi'an Hanfeng Pharmaceutical Co., Ltd., priority 2018, dated 2026)
Where two headings read alike, the source gives them in different places.

Key:
[1] = tested on: ADP-induced platelet aggregation; assay: Anti-platelet aggregation test in vitro (ADP-induced, rat platelet-rich plasma); format: cell-based, SD rats; conditions: for inhibition at 100 µM: Platelet, 2 μL of 100 μM compound in 300 μL rat PRP, read-out: inhibition rate on ADP-induced platelet aggregation; for onset of anti-aggregation effect after addition to PRP: immediately after addition
Procedure: When healthy adult SD rats were anesthetized by intraperitoneal injection of 10% chloral hydrate, fresh whole blood was collected from the abdominal aorta and added to a centrifuge tube anticoagulated with 3.8% sodium citrate solution, and centrifuged at 900 rpm for 10 minutes to remove the upper platelet-rich plasma (PRP) for use. The tube having PRP removed was further centrifuged at 4000 rpm for 10 minutes, and the upper clarified plasma (PPP) was removed for use. In the experiment, Techlink model LBY-NJ4 4-channel platelet aggregator was used to determine the anticoagulant efficacy of each compound.
Into a sample cup containing 300 μL of PRP, 2 μL of 100 μM PGE1, Compound 1 of Example, Compound 2 of Example and methanol (solvent) were first added. After incubated for different periods (0, 1, 2, 4, 7, 10, 15 min), […], of aggregation inducer 180 μM ADP solution was added. The aggregation rate of each sample was measured, and the inhibitory rate of the compound on ADP-induced platelet aggregation was calculated. Inhibition rate %=(solvent aggregation rate−compound aggregation rate)/solvent aggregation rate×100%

[2] = tested on: isolated rabbit blood vessels (thoracic aorta vascular ring); assay: Vasodilation test in vitro (isolated aortic ring); format: cell-based, New Zealand white rabbits; conditions: Oryctolagus cuniculus; cumulative addition 0.05-25.6 nM; read-out: diastolic efficacy on isolated rabbit blood vessels, EC50
Procedure: In the experiment, rabbits were selected to prepare isolated aortic ring specimens: New Zealand white rabbits, male, weighing (2.5±0.3) kg. The rabbit was stunned with a blunt instrument, fixed on the rabbit dissecting table, and the thoracic aorta was quickly separated, and placed in a petri dish filled with saturated Kerbs solution (containing NaCl 6.9 g, KCl 0.35 g, MgSO4.7H2O 0.29 g, KH2PO4 0.16 g, NaHCO3 2.1 g, CaCl2 0.28 g, glucose 2 g per 1000 mL) at 37° C. and continuously introduced with mixed gas (95% O2, 5% CO2). The remaining blood in the blood vessel was squeezed out, and the peripheral fat and connective tissue were carefully peeled off, and it was cut into 0.5 cm long arterial rings for use. […]
BL-420S biological function experiment system (Chengdu Techman Technology) was used to record the variation of vascular ring tension. After the vascular ring contraction was stable, prostaglandin E1 and the compounds of the Examples were accumulatively added to successively increase the final mass concentration of prostaglandin E1 in the bath tube to 0.05, 0.1, 0.2, 0.4, 0.8, 1.6, 3.2, 6.4, 12.8, 25.6 nM, and the diastolic efficacies of the vascular ring were recorded.

[3] = 10 min, after 10 minutes of incubation

| EC50 [2] [nM] | Structure (SMILES) | inhibition at 100 µM [1, 3] [%] | onset of anti-aggregation effect after addition to PRP ([1]; rat PRP) | duration of anticoagulant effect relative to PGE1 ([1]; rat PRP, versus PGE1) [times] | inhibition at 100 µM ([1]; 4 min, after 4 minutes of incubation) [%] |
| --- | --- | --- | --- | --- | --- |
| 1.09 | CCCCC[C@H](O)/C=C/[C@H]1[C@H](O)CC(=O)[C@@H]1CCCCCCC(=O)OC [Compound 1] | 43.7 | take effect immediately | 2 | – |
| – | CCCCC[C@H](O)/C=C/[C@H]1[C@H](O)CC(=O)[C@@H]1CCCCCCC(=O)OCC [Compound 2] | 51.9 | does not take effect immediately | – | – |
| 9.77 | CCCCC[C@H](O)/C=C/[C@H]1[C@H](O)CC(=O)[C@@H]1CCCCCCC(=O)O [PGE1, Prostaglandin E1] | – | take effect immediately | – | 4.93 |
